The record followed here is ChEMBL document CHEMBL3286182, “4-aminoquinolone piperidine amides: noncovalent inhibitors of DprE1 with long residence time and potent antimycobacterial activity” (J Med Chem, 2014).

Common to all, as to type: functional
Test [1] deals with Mycobacterium tuberculosis. Kind of test: Antimycobacterial activity against BTZ043-resistant Mycobacterium tuberculosis over expressing DprE1 C387S mutant after 5 days by standard microdilution method. A general note: Dilution methods test growth across graded concentrations, often in twofold steps.
For test [2], the system named is Mycobacterium tuberculosis. In words: Antimycobacterial activity against Mycobacterium tuberculosis over expressing DprE1 Y314H mutant after 5 days by standard microdilution method.
Test [3] concerns Mycobacterium tuberculosis. In words: Antimycobacterial activity against moxifloxacin-resistant Mycobacterium tuberculosis clone 4.1 over expressing DprE1 mutant after 5 days by standard microdilution method.
Test [4] concerns Mycobacterium tuberculosis. In words: Antimycobacterial activity against TMC207R-resistant Mycobacterium tuberculosis clone 8.1 over expressing DprE1 mutant after 5 days by standard microdilution method.

Each structure is given as a SMILES string. Converted amounts (≈) assume the structure as drawn.

For `COc1c(N2C[C@@H]3CCCN[C@@H]3C2)c(F)cc2c(=O)c(C(=O)O)cn(C3CC3)c12` [MOXIFLOXACIN], the MIC in test [1] is 0.08 µM (≈ 0.0321 µg/mL).
With `C[C@H]1C[C@H](Nc2cc(=O)[nH]c3cc(F)c(F)cc23)CCN1C(=O)c1cnn(C)c1Cl`, the results for the MIC in test [1] and in test [2] were 6.25 µM (≈ 2.72 µg/mL) and 0.78 µM (≈ 0.34 µg/mL), respectively.
For `NNC(=O)c1ccncc1` [ISONIAZID], the MIC in test [1] came out at 0.45 µM (≈ 0.0617 µg/mL); in test [3] it was 0.45 µM (≈ 0.0617 µg/mL); in test [4], 0.23 µM (≈ 0.0315 µg/mL).
For the compound `Cn1ncc(C(=O)N2CCC(Nc3cc(=O)[nH]c4cc(F)c(F)cc34)CC2)c1Cl`, the MIC came to 3.12 µM (≈ 1.32 µg/mL) in test [1], 50 µM (≈ 21.1 µg/mL) in test [2], 0.2 µM (≈ 0.0844 µg/mL) in test [3] and 0.2 µM (≈ 0.0844 µg/mL) in test [4].
For `C[C@H]1COC2(CCN(c3nc(=O)c4cc(C(F)(F)F)cc([N+](=O)[O-])c4s3)CC2)O1` [BTZ-043], the MIC in test [1] worked out at 25 µM (≈ 10.8 µg/mL); in test [3], 0.003 µM (≈ 0.00129 µg/mL); in test [4], 0.002 µM (≈ 0.000863 µg/mL).
As to `Cn1ncc(C(=O)N2CCC(Nc3cc(=O)[nH]c4ccc(F)cc34)CC2)c1Cl`, the MIC in test [1] amounted to 25 µM (≈ 10.1 µg/mL); in test [2], 25 µM (≈ 10.1 µg/mL); in test [3], 1.6 µM (≈ 0.646 µg/mL); in test [4], 1.6 µM (≈ 0.646 µg/mL).
For the compound `Cc1onc(C(=O)N2CCC(Nc3cc(=O)n(C)c4cc(F)c(F)cc34)CC2)c1C`, the values for the MIC in test [1] and in test [2] were 6.25 µM (≈ 2.6 µg/mL) and below 25 µM, respectively.
Regarding `Cn1ncc(C(=O)N2CCC(Nc3cc(=O)[nH]c4ccccc34)CC2)c1Cl`, the MIC came out at 100 µM (≈ 38.6 µg/mL) in test [1], 100 µM (≈ 38.6 µg/mL) in test [2], 1.6 µM (≈ 0.617 µg/mL) in test [3] and 3.1 µM (≈ 1.2 µg/mL) in test [4].
In the case of `COc1nc2ccc(Br)cc2cc1[C@@H](c1ccccc1)[C@@](O)(CCN(C)C)c1cccc2ccccc12` [BEDAQUILINE], the MIC was determined as 0.4 µM (≈ 0.222 µg/mL) in test [1], 1.6 µM (≈ 0.889 µg/mL) in test [3] and 50 µM (≈ 27.8 µg/mL) in test [4].
Turning to `Cn1ncc(C(=O)N2[C@@H]3CC[C@H]2C[C@@H](Nc2cc(=O)[nH]c4ccc(F)cc24)C3)c1Cl`, the MIC was 1.56 µM (≈ 0.671 µg/mL) in test [1] and below 0.39 µM in test [2].

The term MIC denotes the lowest concentration that inhibits growth of the organism.
